Reference: ChEMBL document CHEMBL1135726, “Novel antagonists acting at the P2Y(1) purinergic receptor: synthesis and conformational analysis using potentiometric and nuclear magnetic resonance titration techniques” (J Med Chem, 2002)
Active and inactive are the calls of the source. The rule behind the calls is not given here.

What was measured:
Homo sapiens = species: Homo sapiens; experiment: Inhibitory concentration required to inhibit intracellular [Ca2+] rise induced in washed human platelets by 5 uM ADP; assay type: functional
P2Y purinoceptor 1 = P2Y purinoceptor 1 (Homo sapiens, UniProt P47900); experiment: pA2 value was evaluated against P2Y purinoceptor 1; settings: read-out: pA2 (converted)
Sequence of P2Y purinoceptor 1 (P47900 whole entry): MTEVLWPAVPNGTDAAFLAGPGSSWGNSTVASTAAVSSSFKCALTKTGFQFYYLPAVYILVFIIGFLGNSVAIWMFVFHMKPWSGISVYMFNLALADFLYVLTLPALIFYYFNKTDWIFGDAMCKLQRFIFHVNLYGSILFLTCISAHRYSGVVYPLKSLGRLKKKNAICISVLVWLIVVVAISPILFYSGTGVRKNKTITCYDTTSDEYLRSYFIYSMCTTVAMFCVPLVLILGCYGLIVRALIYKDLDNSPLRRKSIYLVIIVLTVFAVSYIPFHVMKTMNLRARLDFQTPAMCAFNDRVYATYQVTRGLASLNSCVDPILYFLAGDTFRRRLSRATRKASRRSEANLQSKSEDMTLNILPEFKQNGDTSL

[1] = biological target: P2X purinoceptor 2 (Rattus norvegicus) (UniProt P49653); experiment: KB value was evaluated at the rat P2X purinoceptor 2 (P2X2); IA menas inactive
Sequence of P2X purinoceptor 2 (Rattus norvegicus) (P49653 whole entry, looked up): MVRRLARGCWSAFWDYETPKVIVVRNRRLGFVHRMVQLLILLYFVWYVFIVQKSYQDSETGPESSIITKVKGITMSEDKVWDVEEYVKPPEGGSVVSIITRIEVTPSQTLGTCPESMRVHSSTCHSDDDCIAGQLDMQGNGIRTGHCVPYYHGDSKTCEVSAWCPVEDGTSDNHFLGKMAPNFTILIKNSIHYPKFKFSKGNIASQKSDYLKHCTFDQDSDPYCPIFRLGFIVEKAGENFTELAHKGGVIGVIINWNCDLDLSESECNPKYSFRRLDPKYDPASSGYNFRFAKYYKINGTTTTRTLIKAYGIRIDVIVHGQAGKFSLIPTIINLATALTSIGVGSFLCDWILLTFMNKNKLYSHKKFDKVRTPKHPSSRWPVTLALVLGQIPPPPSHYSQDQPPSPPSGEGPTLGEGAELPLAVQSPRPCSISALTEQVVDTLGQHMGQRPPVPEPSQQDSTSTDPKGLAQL

[2] = biological target: P2X purinoceptor 1 (Rattus norvegicus) (UniProt P47824); experiment: Affinity at P2X purinoceptor 1 (P2X1) and the value is expressed as IC50
Sequence of P2X purinoceptor 1 (Rattus norvegicus) (P47824 whole entry, looked up): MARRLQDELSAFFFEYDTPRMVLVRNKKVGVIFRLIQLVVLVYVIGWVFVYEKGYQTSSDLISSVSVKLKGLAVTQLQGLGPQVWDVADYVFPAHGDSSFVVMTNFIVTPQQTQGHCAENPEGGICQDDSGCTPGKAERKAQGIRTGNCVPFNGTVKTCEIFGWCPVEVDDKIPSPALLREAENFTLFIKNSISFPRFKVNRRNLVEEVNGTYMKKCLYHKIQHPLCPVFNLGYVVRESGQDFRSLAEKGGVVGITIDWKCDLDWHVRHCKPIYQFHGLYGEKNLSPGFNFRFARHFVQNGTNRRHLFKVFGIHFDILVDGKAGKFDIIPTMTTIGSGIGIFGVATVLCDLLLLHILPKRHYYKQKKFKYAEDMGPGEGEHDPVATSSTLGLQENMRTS

[3] = biological target: P2X purinoceptor 4 (Rattus norvegicus) (UniProt P51577); experiment: KB value was evaluated at the rat P2X purinoceptor 4 (P2X4); IA menas inactive
Sequence of P2X purinoceptor 4 (Rattus norvegicus) (P51577 whole entry, looked up): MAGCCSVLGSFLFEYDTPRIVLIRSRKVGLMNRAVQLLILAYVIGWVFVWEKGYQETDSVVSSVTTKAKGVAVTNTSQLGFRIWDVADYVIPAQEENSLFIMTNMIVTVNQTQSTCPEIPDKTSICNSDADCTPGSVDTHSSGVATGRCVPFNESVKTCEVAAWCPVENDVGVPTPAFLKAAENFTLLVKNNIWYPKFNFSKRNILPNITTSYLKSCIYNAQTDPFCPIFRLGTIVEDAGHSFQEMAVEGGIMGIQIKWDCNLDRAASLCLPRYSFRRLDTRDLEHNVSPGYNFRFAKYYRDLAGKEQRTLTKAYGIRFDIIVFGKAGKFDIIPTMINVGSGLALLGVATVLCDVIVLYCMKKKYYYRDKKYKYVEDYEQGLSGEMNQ

Row | SMILES | Inhibition (Homo sapiens) | Kb (P2Y purinoceptor 1) | IA [1] | IC50 [2] | IA [3]
1 | CNc1nc(C)nc2c1ncn2[C@H]1C[C@H](OP(=O)(O)O)[C@@H](COP(=O)(O)O)O1 | 100 µM | 77.6 nM |  |  | 
2 | CNc1ncnc2c1ncn2[C@H]1C[C@H](OP(=O)(O)O)[C@@H](COP(=O)(O)O)O1 |  | 282 nM | inactive | 1150 nM | inactive
